According to patent publication US10370438B2, “Histamine-releasing factor (HRF), HRF-receptor and methods of modulating inflammation” (LA JOLLA INSTITUTE FOR ALLERGY AND IMMUNOLOGY, priority 2010, dated 2019):
Entries after “also recorded” stand apart in the source; their conditions may differ.

Experiments:
WT mice = test: IgE/antigen-induced PCA with GST-N19 ear injection; format: in vivo, mouse
Method: Mouse ears were first sensitized with 0.5 μg anti-TNP (C38-2 in the right ear and C48-2 in the left ear) IgE. After 24 hours, Evans' blue dye was intravenously (i.v.) injected, and TNP26-BSA (Ag: 0.1 μg) or mHRF-His6 (10 μg) were immediately injected into the ears. The acute (30 minute) reactions were analyzed by measurement of Evans' blue dye leakage. The ear thickness was measured using a micrometer (Mitutoyo) at 0.5, 1, 2, 4, 6, 8, 12, and 24 hours after mHRF-His6challenge. As a negative control, saline was injected into the ears in place of antigen or HRF challenge. IgG-mediated response was performed by sensitization with 2 μg IgG1 (in place of anti-TNP IgE) and challenge with anti-mouse IgG1 Ab (0.6 μg: Southern Biotechnology, in place of TNP26-BSA). Engraftmanet of Kit^W-sh/W-sh mice with BMMCs was performed 6 weeks before study (Nakano, T., et al. J Exp Med 162:1025-1043 (1985)). In some studies, mice were sensitized and stimulated as described above but without Evans blue.
To study HRFs involvement in IgE/antigen-induced PCA reactions, WT mice were overnight sensitized the IgE. Left ears were injected with GST and the right ears were injected with GST-N19, and then TNP26-BSA were injected in both ears. Ear thickness was measured over a 10 hour period. *, **, ***: p<0.05, p<0.01, p<0.001 by Student's t-test. […]

BMMCs = format: cell-based, mouse
HRF/IgG binding = test: Inhibition of HRF/IgG binding; set-up: species or system mouse
Method: To identify an inhibitor of HRF/Ig interactions to dissect the extracellular function (═HRF function as a cytokine) separate from the intracellular functions in vivo settings, the major Ig-interacting HRF sequence was studied as a specific inhibitor of HRF/Ig interactions. IgE molecules were incubated in GST-mHRF-coated wells in the presence or absence (−) of the indicated concentrations of competitors, GST-N19, GST-mHRF or mHRF-His6 for 2 hours. After incubation, bound-IgE was detected by incubation with biotinylated anti-mouse IgE mAb, followed by streptavidin-HRP. […] By contrast, none of the shorter mHRF peptides tested (residues 1-6, 1-12, 5-19, and 9-19) inhibited HRF/IgE binding. GST-N19 inhibited HRF/IgG binding as well.

BALB/c mice = test: OVA-induced food allergy (diarrhea) model; format: in vivo, mouse
Method: BALB/c mice were intraperitoneally sensitised with OVA (50 μg/mouse) plus alum on days 0 and 14. From day 28, mice were intragastrically challenged with OVA (50 mg) three times a week (Brandt, E. B. et al. J. Clin. Invest. 112:1666-1677 (2003)). Before each challenge, mice were starved for 3 h, then pretreated intragastrically with GST or GST-N19 (100 μg), and rested for 30 min. The development of diarrhoea was visually monitored for 90 min after OVA challenge.
To evaluate the role of HRF in food allergy, an OVA-induced food allergy model developed by Brandt et al. (Brandt et al., J. Clin. Invest. 112:1666 (2003)) was employed. BALB/c mice that were 6-8-week-old were intraperitoneal (i.p.) immunized twice on days 0 and 14 with 50 μg of OVA in the presence of alum. From day 28, mice were intragastrically challenged with OVA (50 mg) three times a week. Before each challenge, mice were starved for 3 hours, then pretreated with GST or GST-N19 (100 μg/mouse) intragastrically, and rested for 30 minutes. Control mice were sensitized and challenged, but not pretreated. The development of diarrhea was monitored for ninety minutes after OVA challenge. […] Sections of jejunum and ileum from mice treated as in FIG. 14 were stained with chloroacetate esterase. […] There was a good correlation shown between the number of mucosal mast cells and the number of diarrhea occurrence during 10 OVA challenges (FIG. 15D). Increased serum IgE and IgG1, but not IgG2a, levels (FIG. 16) and increased expression of mRNAs encoding Th2 cytokines (IL-4, IL-5, IL-13) and proinflammatory cytokines (IL-6, IL-1β) in the intestines were observed (data not shown). In this Th2-skewed model, the amount of HRF in plasma from diarrhea-induced mice, as measured by immunoblotting, was increased by about 2 fold compared to PBS control mice (FIG. 16E). […] However, HRF-reactive IgE was not detected under the study conditions.

[1] = system: CHO-K1 (Chinese hamster ovary cell); settings: CHO-K1, 3.6 or 36 μM, 2 days
Method: (§1) To analyze the effect of GST-N19 on intracellular functions of HRF/TCTP, the indicated cells were cultured in the absence (−) or presence of the indicated concentrations of GST or GST-N19 for 2 days, and live cells were counted in the presence of Trypan blue. […] The usual dose of HRF to stimulate basophils is 1.6-5 μM (Langdon, et al., J Leukoc Biol 84, 1151 (October, 2008)). Apoptosis was induced by growth factor withdrawal, IL-3 depletion, in BMMCs for 3 days and by 800 nM H2O2 in CHO-K1 cells for 2 days, and live cells were counted.

CHO-K1 cells = settings: 800 nM H2O2, 2 days
Method: as §1

## GST-N19: GST fusion protein encoding the first 19 residues of mHRF; inhibitor of HRF/Ig interactions
WT mice; HRF-nonreactive IgE-induced PCA
  PCA (ear thickness): insensitive
WT mice; HRF-reactive IgE-induced PCA, TNP26-BSA challenge
  Acute reactions and LPR (ear thickness): significantly reduced
BMMCs
  Effects on mast cell growth and apoptosis: absence of GST-N19 effects
HRF/IgG binding
  Inhibition of HRF/IgG binding: inhibited
BALB/c mice; 100 μg/mouse intragastrically before each OVA challenge, vs GST-pretreated or PBS-treated control mice
  Development of diarrhea: prevented in a much greater percentage of mice; also recorded: prevents
BALB/c mice; jejunum and ileum sections
  Increase in mucosal mast cells: inhibited
  Increase in serosal mast cells: inhibited
BALB/c mice; mouse, in vivo
  Mastocytosis in the small intestine: inhibits
  Plasma level of HRF-reactive IgG: not affected
  Plasma level of total IgE: not affected
  Plasma level of total IgG1: not affected
  Plasma level of total IgG2a: not affected
[1]
  Viability or proliferation: did not affect
CHO-K1 cells
  Live cells after induced apoptosis: not affected
